Test results reported in patent US11324725B2, “Compositions and methods for the inhibition of pruritus” (The United States of America, as represented by the …, priority 2017, dated 2022).

Target: T1, mNpr1 (Mus musculus, UniProt P18293)
T1 construct: host or cells: HEK-293, transient co-transfection with pGS-40F
T1 sequence (P18293 29-1057): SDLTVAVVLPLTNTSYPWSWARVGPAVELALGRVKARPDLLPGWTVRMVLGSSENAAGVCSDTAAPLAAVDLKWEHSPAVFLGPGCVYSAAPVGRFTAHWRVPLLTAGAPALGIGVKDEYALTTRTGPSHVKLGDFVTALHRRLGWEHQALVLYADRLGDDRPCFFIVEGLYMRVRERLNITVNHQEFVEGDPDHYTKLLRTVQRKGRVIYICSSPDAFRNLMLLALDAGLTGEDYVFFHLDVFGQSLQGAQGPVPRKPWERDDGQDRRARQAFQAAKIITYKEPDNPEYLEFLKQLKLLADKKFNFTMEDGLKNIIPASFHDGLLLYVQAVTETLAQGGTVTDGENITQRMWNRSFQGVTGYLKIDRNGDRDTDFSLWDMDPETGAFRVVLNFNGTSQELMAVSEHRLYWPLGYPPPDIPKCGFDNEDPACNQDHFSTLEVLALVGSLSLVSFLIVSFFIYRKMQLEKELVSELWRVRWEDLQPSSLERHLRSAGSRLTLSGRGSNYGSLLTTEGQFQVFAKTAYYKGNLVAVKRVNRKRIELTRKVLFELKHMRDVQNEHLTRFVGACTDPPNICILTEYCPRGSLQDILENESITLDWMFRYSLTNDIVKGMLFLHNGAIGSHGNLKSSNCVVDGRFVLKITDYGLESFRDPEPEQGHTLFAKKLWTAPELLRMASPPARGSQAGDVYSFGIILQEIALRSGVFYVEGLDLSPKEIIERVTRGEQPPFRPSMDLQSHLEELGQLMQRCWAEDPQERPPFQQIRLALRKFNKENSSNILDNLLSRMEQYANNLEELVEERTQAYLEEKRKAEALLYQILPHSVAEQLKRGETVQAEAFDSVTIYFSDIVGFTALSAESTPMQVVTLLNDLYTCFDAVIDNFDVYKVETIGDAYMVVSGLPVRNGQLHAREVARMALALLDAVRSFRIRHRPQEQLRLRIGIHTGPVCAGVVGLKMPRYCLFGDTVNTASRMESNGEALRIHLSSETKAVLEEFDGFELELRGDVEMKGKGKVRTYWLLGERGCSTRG
Assay: GloSensor assay, HEK-293 cells transiently expressing mNpr1 and pGS-40F
Format: cell-based
Conditions: for IC50: 1 nM mNppb 5 minutes after compound, read-out: IC50 [μM] (mean ± SEM), mNpr1; for Ki: calculated with Cheng-Prusoff equation from Table 6, read-out: Ki mNpr1 GloSensor™ [μM] (mean ± SEM)
Experimental: HEK-293 cells (American Type Culture Collection “ATTC,” Manassas, Va.) were cultured in DMEM/F12 supplemented with 2 mM L-glutamine, 10% FBS, 100 U/ml penicillin, and 100 μg/ml streptomycin. For transient expression, 8×10^5 cells were seeded in 6-wells, cultured for 24 hours, and then transfected using TransIT®-293 (Mirus, Madison, Wis.) according to the manufacturer's instructions. After transfection (48 hours), cells were used to measure intracellular cGMP production. HEK-293 cell clones stably expressing pGloSensor™-40F alone (HEK-cGMP-sensor cells) or in addition, human Npr1 (“hNpr1”) (HEK-hNpr1-cGMP-sensor cells) or human Npr2 (HEK-hNpr2-cGMP-sensor cells) were generated by co-transfection with pEAK8-GFP and selection with 1 μg/ml puromycin. Stable expression of transgenes was verified by measuring ligand-induced cGMP production with the cGMP biosensor.
Before the measurement (24 hours in advance), 3×10^4 cells were seeded into white 96-well plates (PerkinElmer, Waltham, Mass.), coated with 0.1% poly(D-lysine), and assays conducted as recommended by the manufacturer (Promega). Medium was aspirated and cells were loaded for two hours at room temperature with 2% GoSensor™ reagent diluted in CO2-independent media (ThermoFisher) supplemented with 2 mM L-glutamine and 10% FBS (assay medium). Luminescence was measured on a BioTek Synergy™ NEO (Winooski, Vt.) plate reader at room temperature. After a baseline measurement of 3-5 minutes, assay medium as a control or assay medium with agonist was manually added, and luminescence was measured for 30 minutes at ˜ 1/60 Hz. For compounds tested for Npr1 and Npr2 inhibition, the compounds were added after baseline measurements, and luminescence was read for 5 minutes before addition of agonist. Luminescence was then normalized to baseline measurements and plotted against the time. Ligand-induced changes of cGMP production were quantified by determining the area under the curve. To determine efficacy and potency of agonists, ligand-induced changes were normalized to medium only addition and plotted against the ligand concentration. […] To quantify […] of compounds, compound-induced changes of agonist-induced cGMP production were normalized to vehicle controls, plotted against compound concentration, and fit with a four-parameter logistic regression. Effects of A-71915 on basal mNpr1 activity were fitted with a bell-shaped regression (equation indicated below).
Because the Npr1 receptor is a ligand-dependent guanylate cyclase, measuring agonist-induced changes in intracellular cGMP levels was used to examine inhibition of Npr1. To measure the production of cGMP by Npr1, a circular permutated Firefly luciferase molecule which was functionally linked to the cGMP binding domain of human PDE5 (GloSensor™ technology pGS-40F) was used, as described in Example 1. This reporter molecule together with a luciferase substrate (GoSensor™ reagent) and a sensitive method for detection of luciferase activity (emitted light) permitted real-time measurement of cGMP levels in live cells (FIG. 1A). The cGMP sensor was expressed in HEK293 cells and luciferase activity after stimulation with the NO-donor sodium nitroprusside (SNP), which activates ubiquitously expressed soluble guanylate cyclases, was examined. […] Next, mNpr1 and the cGMP sensor were transiently expressed in HEK293 cells and agonist dependent receptor activation was examined. […] Next, the effects of A-71915 on mNpr1 were tested.
For Table 6, HEK-293 cells transiently expressing mNpr1 and pGS-40F were stimulated with 1 nM mNppb 5 minutes after addition of candidate compounds or A-71915 and luminescence was measured for 30 minutes. Inhibitors were titrated to calculate apparent IC50 values, as described in methods.

`Cc1noc(C)c1-c1cc(-c2ccccc2Oc2ccccc2)cn2cncc12` [JS-5, 3,5-dimethyl-4-(6-(2-phenoxyphenyl)imidazo[1,5-a]pyridin-8-yl)isoxazole] was tested, and the IC50 was 20 ± 12 µM and the Ki was 0.42 ± 0.265 µM.
`Cc1cc(CNC(=O)c2ccc3c(c2)n(CC2CC2)c(=O)n3C2CCCCC2)on1` [JS-11, 1-cyclohexyl-3-(cyclopropylmethyl)-N-((3-methylisoxazol-5-yl)methyl)-2-oxo-2,3-dihydro-1H-benzo[d]imidazole-5-carboxamide] was tested, and the IC50 was 4.9 ± 1.5 µM and the Ki was 0.1 ± 0.03 µM.
Work on `COc1ccccc1-c1n[nH]c2ncc(C(=O)NCc3cccnc3)nc12` [JS-6, 3-(2-methoxyphenyl)-N-(pyridin-3-ylmethyl)-1H-pyrazolo[3,4-b]pyrazine-5-carboxamide] yielded an IC50 of 82 ± 68 µM and a Ki of 1.69 ± 1.39 µM.
With `Cc1nn2c(c1-c1ccccc1OCc1ccccc1)N(C(=O)Cc1ccccn1)CCC2` [JS-9, 1-(3-(2-(benzyloxy)phenyl)-2-methyl-6,7-dihydropyrazolo[1,5-a]pyrimidin-4(5H)-yl)-2-(pyridin-2-yl)ethan-1-one] the IC50 was 28 µM and the Ki was 0.57 ± 0.0004 µM.
For `COc1cc(CN2CCC(C)(NC(C)=O)CC2)cc(-c2ccncc2)c1` [JS-4, N-(1-(3-methoxy-5-(pyridin-4-yl)benzyl)-4-methylpiperidin-4-yl)acetamide], the IC50 was 11 ± 3.4 µM and the Ki was 0.22 ± 0.07 µM.
`CCC(CC)c1cc([C@H]2CN3CC[C@H]2C[C@@H]3CNS(=O)(=O)c2cccs2)nc(-c2ccncc2)n1` [JS-3, N-(((2R,4S,5R)-5-(6-(pentan-3-yl)-2-(pyridin-4-yl)pyrimidin-4-yl)quinuclidin-2-yl)methyl)thiophene-2-sulfonamide] showed an IC50 of 12 ± 1.8 µM and a Ki of 0.25 ± 0.036 µM.
`N#Cc1ccccc1CN1CCCC(C(=O)NCc2ccccc2)CCNC(=O)CC1` (stereo not shown) [JS-13, N-benzyl-1-(2-cyanobenzyl)-4-oxo-1,5-diazacycloundecane-8-carboxamide] was tested, and the IC50 was 10 ± 2.2 µM and the Ki was 0.21 ± 0.046 µM.
`Cc1nn2c(c1-c1ccccc1OCc1ccccc1)N(C(=O)Cc1ccc3c(c1)OCO3)CCC2` [JS-8, 2-(benzo[d][1,3]dioxol-5-yl)-1-(3-(2-(benzyloxy)phenyl)-2-methyl-6,7-dihydropyrazolo[1,5-a]pyrimidin-4(5H)-yl)ethan-1-one] showed an IC50 of 4.7 ± 0.3 µM and a Ki of 0.1 ± 0.006 µM.
`COc1ccc(C2(C(=O)N3CCC4(CC3)c3nccn3-c3ccccc3CN4C)CC2)cc1` [JS-12, (1-(4-methoxyphenyl)cyclopropyl)(5-methyl-5,6-dihydrospiro[benzo[f]imidazo[1,2-a][1,4]diazepine-4,4′-piperidin]-1′-yl)methanone] showed an IC50 of 13 ± 0.3 µM and a Ki of 0.26 ± 0.006 µM.
Compound `Cc1nn2c(c1-c1ccccc1Oc1ccccc1)N(C(=O)Cc1ccc3c(c1)OCO3)CCC2` [JS-10, 2-(benzo[d][1,3]dioxol-5-yl)-1-(2-methyl-3-(2-phenoxyphenyl)-6,7-dihydropyrazolo[1,5-a]pyrimidin-4(5H)-yl)ethan-1-one] has an IC50 of 15 ± 1.8 µM and a Ki of 0.31 ± 0.037 µM.
Compound `CN(Cc1ccccc1)C(=O)c1cn2ccnc(-c3ccccc3)c2n1` [JS-14, N-benzyl-N-methyl-8-phenylimidazo[1,2-a]pyrazine-2-carboxamide] has an IC50 of 15.8 ± 16 µM and a Ki of 0.32 ± 0.329 µM.
